Measured values: PMC9845330 (Communications Biology, 2023)
Entries after “also recorded” stand apart in the source; their conditions may differ. Non-standard residues stand in square brackets, D forms with d. Residues, ends and D or L forms follow the SMILES beside them. *: point of attachment. X1 = O=C(CCCC[C@@H]1SC[C@@H]2NC(=O)N[C@@H]21)NCCCOCCOCCOCCCN*; PEG12 = NCCOCCOCCOCCOCCOCCOCCOCCOCCOCCOCCOCCOCCC(=O)O

Key:
[1] = Stability in human serum; format: in vitro ADME; settings: 100% human serum, 48 h, 37 °C, serum proteins precipitated, analytical HPLC, MALDI TOF/TOF MS
Protocol: To address if acetylation is effective in reducing serum degradation of MGS4, acetylated (MGS4_V8) and non-acetylated (MGS4_V4) peptides were dissolved in human serum and incubated for 48 h at 37 °C. The peptides were monitored by analytical HPLC, and products were verified via MALDI TOF/TOF™ MS. […] Instead, a mixture of peptide fragments is detected, none of which correspond to the mass of the starting peptide (Supplemental Table 1 and Supplemental Fig. 2). The major products are shorter fragments corresponding to the loss of the five N-terminal amino acids. Fragments related to QSFYT-PEG11, SFYT-PEG11 and FYT-PEG11 are observed.
Supplemental Figure 1. […]
M GS4_V4 (non-acetylated, panel a) and M GS4_V8 (acetylated, panel b ) were incubated in 100% human serum for 0 and 48-hours. Serum proteins were precipitated, and the peptide was analyzed by analytical
HPLC. The mass of the peptide and degradation products were determined by MALDI MS and are […]
MGS4_V8, MGS4_V9, or MGS4_V10 were conjugated with streptavidin-Alexa Fluor 650 and were incubated with the indicated cell line for 1 hour. Non-internalized peptide was rem ov ed, and the mean number of peptides internalized per cell was determined to calculate the EC50. […]
Supplemental Figure 4 : Peptide-Streptavidin conjugates are nontoxic to cells. a. […] After 72 hours, viability was measured. […]

[2] = tested on: subcutaneous H2009 tumors; assay: Tumor homing by near infrared imaging; format: in vivo, mouse; settings: for Total Radiant Efficiency: Mean
Protocol: Use of MGS4 as a delivery agent relies on its ability to target a tumor in an animal. MGS4_V8 and MGS4_V6 (control) were conjugated directly to Alexa Fluor 750. Each conjugate was injected intravenously into immunocompromised mice bearing subcutaneous H2009 tumors, and accumulation of the peptide was measured by near infrared imaging (Fig. 5a). MGS4_V8 tumor homing is observed at 12 h and 85% of that signal is maintained at 24 h. MGS4_V8 signal remains at 48 and 72 h, indicating persistent retention of the dye in the tumor. At all times, MGS4_V8 has 25-40-fold increased signal compared to the control peptide. […] Tumors were fixed in paraformaldehyde followed by whole tumor imaging on a LI-COR® Odyssey (Fig. 5b). A clear visual difference exists between tumors isolated from mice treated with MGS4_V8 compared to those treated with MGS4_V6 control or untreated. Quantification of fluorescence results in a 240-fold higher signal in the MGS4_V8 treated tumors compared to the MGS4_V6 group. Similar results were obtained when subcutaneous H1299 tumors were established in mice (Supplemental Fig. 5).
Fig. 5 MGS4_V8 homes to xenograft tumor after systemic delivery and can deliver saporin resulting in reduced tumor growth. a H2009 tumor bearing nude mice (N = 4) were injected I.V. with MGS4_V8 or MGS4_V6 conjugated to NIR dye Alexa Fluor 750. At 12, 24, 48, and 72 h postinjection, mice were anesthetized and imaged on an IVIS® (Perkin Elmer) to measure total radiant efficiency in each tumor. MGS4_V8 accumulates in tumor 25–39 fold better than control peptide, MGS4_V6. […] Ex vivo NIR imaging of the tumors at the end of the experiment mirrors the data observed in the living animals. […] Data for individual animals is included in Supplementary Table 8. b Excised tumors from the previous experiment were fixed in PBS + 4% formaldehyde and then imaged again together on a LI-COR® Odyssey. Arbitrary fluorescence units (AFU) were determined for each tumor and the average and SEM are shown below the image. The mean fluorescent intensity is 240-fold greater for MGS4_V8-Alexa Fluor 750 conjugate than the MGS4_V6 control conjugate. c Saporin was conjugated to either targeting MGS4_V8 or nontargeting MGS4_V6 and 7.5 µg of the conjugate was injected I.V. into mice bearing subcutaneous tumors. Animals were dosed 2 times per week for 2.5 weeks (indicated by arrows). Tumors were measured every other day. MGS4_V8-saporin clearly slows tumor growth, while nontargeted saporin has no effect compared to untreated animals. Error bars represent SEM, *p-value < 0.05, **p-value < 0.01, ***p-value < 0.001, ****p-value < 0.0001 (two-way ANOVA). d Tumor size (mm3) are shown for individual animals at days 0, 6, 12, and 18. Mean value is represented by the horizontal line and the error bars represent standard error. There is no statistical difference between MGS4_V6-Saporin and untreated at any day. At days 12 and 18 MGS4_V8-Saporin is statistically different than untreated (p-values 0.0099 and 0.0029, respectively) and MGS4_V6-Saporin (p-values 0.0069 and 0.0009, respectively). TEXT PRINTED IN THE PICTURE: (b) MGS4_V8: AFU: 3.3e6 ± 1.1e5; 240-fold | (b) MGS4_V6: AFU: 1.2e4 ± 2.7e3 DOUBTS OF THE COPYIST ABOUT THIS PICTURE: Panel b, 240-fold: printed under a line spanning MGS4_V8 and MGS4_V6; assigned to MGS4_V8 / Panel b, Untreated column (AFU: 1.6e3 ± 4.3e2) left out because it is a control without a substance
Animal experiments were approved by SRI International’s Institutional Animal Care and Use committee (Animal Welfare Assurance Number A3025-01, protocol 14008). H2009 cells (10^6) or H1299 cells (10^6) were implanted subcutaneously on the flank of female Nu/Nu mice (Jackson Laboratory, Bar Harbor, ME). When tumors reached 100 mm^3, in vivo experiments were initiated. For imaging, the indicated peptides were conjugated directly to Alexa Fluor 750 near-infrared dye (Supplemental Fig. 1). Four animals per group were used. […]

Compound	peptide after incubation in human serum [1]	Total Radiant Efficiency ([2]; 12 h)	tumor signal maintained relative to 12 h ([2]; 24 h, Alexa Fluor 750 conjugate i.v.)	Total Radiant Efficiency ([2]; 24 h)	Total Radiant Efficiency ([2]; 48 h)	Total Radiant Efficiency ([2]; 72 h (first line))	Total Radiant Efficiency ([2]; 72 h (second line))	fold fluorescence versus MGS4_V6 group ([2]; excised fixed tumors, 72 h, LI-COR Odyssey)	tumor signal versus untreated tumors ([2]; Alexa Fluor 750 conjugate)
CC(=O)N[C@@H](Cc1ccccc1)C(=O)N[C@@H](Cc1c[nH]cn1)C(=O)N[C@@H](C)C(=O)N[C@H](C(=O)N1CCC[C@H]1C(=O)N[C@@H](CCC(N)=O)C(=O)N[C@@H](CO)C(=O)N[C@@H](Cc1ccccc1)C(=O)N[C@@H](Cc1ccc(O)cc1)C(=O)N[C@H](C(=O)NCCOCCOCCOCCOCCOCCOCCOCCOCCOCCOCCOCCOCCC(=O)N[C@@H](CCC(=O)NCCCOCCOCCOCCCNC(=O)CCCC[C@@H]1SC[C@@H]2NC(=O)N[C@@H]21)C(N)=O)[C@@H](C)O)C(C)C [MGS4_V8] (Ac-FHAVPQSFYT[PEG12]E(X1)-NH2)	only full-length peptide observed	1.58e+010	85%	1.33e+010	7.91e+009	7.00e+009	2.02e+010	240 fold	
*HAVPQSFYT** [MGS4_V6]		3.94e+008		3.44e+008	2.64e+008	2.80e+008	2.00e+009		no statistically significant difference; also recorded: statistically no different than untreated tumors
